Assay results: PubChem BioAssay AID248 (DTP/NCI, 2004)
Toxic doses and inconclusive results are not listed.

System: L1210 leukemia ip in BDF1 mice, survival T/C
Test: NCI In Vivo Anticancer Drug Screen. Data for tumor model L1210 Leukemia (intraperitoneal) in B6D2F1 (BDF1) mice
Conditions: endpoint: mean survival time, higher = longer survival
Outline: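 Mice bearing the transplanted tumor received compound or vehicle. Survival of the treated group was divided by that of the vehicle-treated control group to give the ratio.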

[1] = dose: 100.0 mg/kg/injection, schedule: Q01DX009 (ip), vehicle: saline
[2] = dose: 100.0 mg/kg/injection, schedule: Q01DX001 (ip), vehicle: saline
[3] = dose: 100.0 mg/kg/injection, schedule: Q01DX001 (ip), vehicle: carboxymethylcellulose (CMC)
[4] = dose: 200.0 mg/kg/injection, schedule: Q01DX001 (ip), vehicle: carboxymethylcellulose (CMC)
[5] = dose: 400.0 mg/kg/injection, schedule: Q01DX001 (ip), vehicle: carboxymethylcellulose (CMC)
[6] = dose: 50.0 mg/kg/injection, schedule: Q01DX001 (ip), vehicle: carboxymethylcellulose (CMC)
[7] = dose: 75.0 mg/kg/injection, schedule: Q01DX001 (ip), vehicle: saline
[8] = dose: 150.0 mg/kg/injection, schedule: Q01DX001 (ip), vehicle: saline
[9] = dose: 100.0 mg/kg/injection, schedule: Q04DX003 (ip), vehicle: Klucel (hydroxypropylcellulose) (HPC)
[10] = dose: 200.0 mg/kg/injection, schedule: Q04DX003 (ip), vehicle: Klucel (hydroxypropylcellulose) (HPC)
[11] = dose: 400.0 mg/kg/injection, schedule: Q04DX003 (ip), vehicle: Klucel (hydroxypropylcellulose) (HPC)
[12] = dose: 100.0 mg/kg/injection, schedule: Q01DX009 (ip), vehicle: saline with Tween-80
[13] = dose: 200.0 mg/kg/injection, schedule: Q01DX009 (ip), vehicle: saline with Tween-80
[14] = dose: 100.0 mg/kg/injection, schedule: Q01DX001 (ip), vehicle: Klucel (hydroxypropylcellulose) (HPC)
[15] = dose: 200.0 mg/kg/injection, schedule: Q01DX001 (ip), vehicle: Klucel (hydroxypropylcellulose) (HPC)
[16] = dose: 400.0 mg/kg/injection, schedule: Q01DX001 (ip), vehicle: Klucel (hydroxypropylcellulose) (HPC)

In the case of `Cc1cc(NC(=O)Nc2ccc(C3=NCCCN3)cc2)ccc1NC(=O)Nc1ccc(C2=NCCCN2)cc1`, the T/C (dose: 3.0 mg/kg/injection, schedule: Q01DX Z (ip), vehicle: water) is reported as 113 % of control, the T/C (dose: 4.5 mg/kg/injection, schedule: Q01DX Z (ip), vehicle: water) is reported as 119 % of control and the T/C (dose: 6.0 mg/kg/injection, schedule: Q01DX Z (ip), vehicle: water) is reported as 109 % of control. The T/C (dose: 7.5 mg/kg/injection, schedule: Q01DX Z (ip), vehicle: water) was 167 % of control, the T/C (dose: 10.0 mg/kg/injection, schedule: Q01DX Z (ip), vehicle: water) was 220 % of control and the T/C (dose: 25.0 mg/kg/injection, schedule: Q01DX Z (oral), vehicle: water) was 109 % of control. The T/C (dose: 50.0 mg/kg/injection, schedule: Q01DX Z (oral), vehicle: water) was 103 % of control, the T/C [1] was 163 % of control and the T/C (dose: 100.0 mg/kg/injection, schedule: Q01DX Z (oral), vehicle: water) was 105 % of control. The T/C (dose: 200.0 mg/kg/injection, schedule: Q01DX Z (oral), vehicle: water) was 109 % of control.

In the case of `CCN(CC)CCNC(c1ccccc1)C(Cl)(Cl)Cl` (stereo not given), the T/C [2] is reported as 100 % of control.

In the case of `O=C(O/C(=N\N1N=NC(c2ccccc2)C1c1ccccc1)c1ccccc1)c1ccccc1` (stereo not given), the T/C [3] is reported as 87 % of control, the T/C [4] is reported as 89 % of control and the T/C [5] is reported as 89 % of control.

In the case of `Cc1ncc(CO)c(/C=N\OCc2cccc(Cl)c2)c1O`, the T/C (dose: 12.5 mg/kg/injection, schedule: Q01DX009 (ip), vehicle: saline) is reported as 100 % of control and the T/C (dose: 25.0 mg/kg/injection, schedule: Q01DX009 (ip), vehicle: saline) is reported as 100 % of control.

With `S=C([S-])N(Cc1ccccc1)Cc1ccccc1.S=C([S-])N(Cc1ccccc1)Cc1ccccc1.[Zn]` the T/C (dose: 50.0 mg/kg/injection, schedule: Q01DX009 (ip), vehicle: saline) was 104 % of control, the T/C [1] was 102 % of control and the T/C (dose: 100.0 mg/kg/injection, schedule: Q04DX003 (ip), vehicle: saline) was 94 % of control. For the same compound, the T/C (dose: 200.0 mg/kg/injection, schedule: Q01DX009 (ip), vehicle: saline) was 104 % of control, the T/C (dose: 200.0 mg/kg/injection, schedule: Q04DX003 (ip), vehicle: saline) was 97 % of control and the T/C (dose: 400.0 mg/kg/injection, schedule: Q04DX003 (ip), vehicle: saline) was 89 % of control.

`Cc1ccc(-c2c([N+](=O)[O-])ccc(Cl)c2[N+](=O)[O-])cc1` was tested, and the T/C [6] was 102 % of control, the T/C [3] was 105 % of control and the T/C [4] was 102 % of control. For the same compound, the T/C [5] was 100 % of control.

With `O=C(N/N=C/c1cccc2ccccc12)c1ccc(O)cc1` the T/C (dose: 100.0 mg/kg/injection, schedule: Q04DX002 (ip), vehicle: Klucel (hydroxypropylcellulose) (HPC)) was 100 % of control, the T/C (dose: 200.0 mg/kg/injection, schedule: Q04DX002 (ip), vehicle: Klucel (hydroxypropylcellulose) (HPC)) was 100 % of control and the T/C (dose: 400.0 mg/kg/injection, schedule: Q04DX002 (ip), vehicle: Klucel (hydroxypropylcellulose) (HPC)) was 103 % of control.

In the case of `CC1(C)N=C(N)N=C(N)N1c1ccc(OCCCNS(=O)(=O)c2ccc(S(=O)(=O)F)cc2)c(Cl)c1`, the T/C (dose: 37.5 mg/kg/injection, schedule: Q04DX003 (ip), vehicle: saline with Tween-80) is reported as 103 % of control, the T/C (dose: 75.0 mg/kg/injection, schedule: Q04DX003 (ip), vehicle: saline with Tween-80) is reported as 108 % of control and the T/C (dose: 150.0 mg/kg/injection, schedule: Q04DX003 (ip), vehicle: saline with Tween-80) is reported as 107 % of control.

In the case of `COc1ccc(OC)c(C2C(C#N)C(C=O)NC(C=O)C2C#N)c1` (stereo not given), the T/C (dose: 100.0 mg/kg/injection, schedule: Q04DX003 (ip), vehicle: other) is reported as 107 % of control, the T/C (dose: 200.0 mg/kg/injection, schedule: Q04DX003 (ip), vehicle: other) is reported as 109 % of control and the T/C (dose: 400.0 mg/kg/injection, schedule: Q04DX003 (ip), vehicle: other) is reported as 107 % of control.

`O=C1N(O)C2(CCCC(O)C2O)C(=O)C12CCCCC2` (stereo not given) was tested, and the T/C [7] was 103 % of control, the T/C [8] was 96 % of control and the T/C (dose: 300.0 mg/kg/injection, schedule: Q01DX001 (ip), vehicle: saline) was 96 % of control.

`CC1(CCCC2C(=O)N(c3ccccc3)N(c3ccccc3)C2=O)OCCO1` was tested, and the T/C [9] was 104 % of control, the T/C [10] was 98 % of control and the T/C [11] was 94 % of control.

For `CC(=O)CSC(=S)OC(C)C`, the T/C (dose: 100.0 mg/kg/injection, schedule: Q04DX002 (ip), vehicle: saline) was 112 % of control, the T/C (dose: 200.0 mg/kg/injection, schedule: Q04DX002 (ip), vehicle: saline) was 94 % of control and the T/C (dose: 400.0 mg/kg/injection, schedule: Q04DX002 (ip), vehicle: saline) was 105 % of control.

With `CCCCCCCCCNC(=O)Nc1cccc(Cl)c1C` the T/C [12] was 86 % of control, the T/C (dose: 100.0 mg/kg/injection, schedule: Q04DX003 (ip), vehicle: saline with Tween-80) was 90 % of control and the T/C [13] was 87 % of control. For the same compound, the T/C (dose: 200.0 mg/kg/injection, schedule: Q04DX003 (ip), vehicle: saline with Tween-80) was 90 % of control and the T/C (dose: 400.0 mg/kg/injection, schedule: Q04DX003 (ip), vehicle: saline with Tween-80) was 90 % of control.

In the case of `C(/C=C/C=C/N1CCCCC1)=[N+]1CCCCC1`, the T/C (dose: 0.39 mg/kg/injection, schedule: Q04DX003 (ip), vehicle: saline) is reported as 112 % of control, the T/C (dose: 0.78 mg/kg/injection, schedule: Q04DX003 (ip), vehicle: saline) is reported as 93 % of control and the T/C (dose: 1.56 mg/kg/injection, schedule: Q04DX003 (ip), vehicle: saline) is reported as 105 % of control.

`O=C(Nc1ccccc1)OC1CCCC2CCCCC21` (stereo not given) was tested, and the T/C [9] was 96 % of control, the T/C [10] was 96 % of control and the T/C [11] was 93 % of control.

With `Nc1ncnc(N)n1` the T/C [6] was 98 % of control, the T/C [3] was 101 % of control and the T/C [4] was 101 % of control.

With `CN(C)C1=CS(=O)(=O)C1` the T/C [7] was 94 % of control and the T/C [8] was 97 % of control.

`COc1ccc(C(=O)/C=C/c2ccccc2)cc1` was tested, and the T/C [14] was 102 % of control, the T/C [15] was 113 % of control and the T/C [16] was 100 % of control.

In the case of `Cc1nc2c([N+](=O)[O-])cccn2n1`, the T/C (dose: 100.0 mg/kg/injection, schedule: Q01DX001 (ip), vehicle: acetone) is reported as 98 % of control.

`N#C/C(=N\N=Nc1ccccc1)c1ccccc1` was tested, and the T/C (dose: 1.5 mg/kg/injection, schedule: Q01DX009 (ip), vehicle: DMSO) was 90 % of control, the T/C (dose: 6.0 mg/kg/injection, schedule: Q01DX009 (ip), vehicle: DMSO) was 92 % of control and the T/C (dose: 12.5 mg/kg/injection, schedule: Q01DX009 (ip), vehicle: DMSO) was 98 % of control. For the same compound, the T/C (dose: 12.5 mg/kg/injection, schedule: Q04DX003 (ip), vehicle: DMSO) was 98 % of control, the T/C (dose: 25.0 mg/kg/injection, schedule: Q04DX003 (ip), vehicle: DMSO) was 98 % of control and the T/C (dose: 50.0 mg/kg/injection, schedule: Q04DX003 (ip), vehicle: DMSO) was 102 % of control.

For `CC(C(=O)O)C(N)C(=O)O` (stereo not given), the T/C (dose: 75.0 mg/kg/injection, schedule: Q04DX003 (ip), vehicle: saline) was 102 % of control, the T/C [14] was 88 % of control and the T/C [2] was 98 % of control. For the same compound, the T/C (dose: 150.0 mg/kg/injection, schedule: Q04DX003 (ip), vehicle: saline) was 102 % of control, the T/C [15] was 97 % of control and the T/C (dose: 200.0 mg/kg/injection, schedule: Q01DX001 (ip), vehicle: saline) was 96 % of control. The T/C (dose: 300.0 mg/kg/injection, schedule: Q04DX003 (ip), vehicle: saline) was 102 % of control, the T/C [16] was 92 % of control and the T/C (dose: 400.0 mg/kg/injection, schedule: Q01DX001 (ip), vehicle: saline) was 95 % of control.

`Cc1ccc(NC(=O)COc2ccc(Cl)cc2)c(C)c1` was tested, and the T/C [14] was 99 % of control, the T/C (dose: 100.0 mg/kg/injection, schedule: Q01DX009 (ip), vehicle: Klucel (hydroxypropylcellulose) (HPC)) was 100 % of control and the T/C [9] was 96 % of control. For the same compound, the T/C [15] was 99 % of control, the T/C (dose: 200.0 mg/kg/injection, schedule: Q01DX009 (ip), vehicle: Klucel (hydroxypropylcellulose) (HPC)) was 102 % of control and the T/C [10] was 96 % of control. The T/C [16] was 99 % of control and the T/C [11] was 98 % of control.

For `CCCc1cc(CCC)nc(NNc2nc(CCC)cc(CCC)n2)n1`, the T/C [12] was 104 % of control, the T/C [13] was 96 % of control and the T/C (dose: 400.0 mg/kg/injection, schedule: Q01DX009 (ip), vehicle: saline with Tween-80) was 110 % of control.
